Values of other authors, collected in patent publication US11192861B2, “Human plasma kallikrein inhibitors” (BioCryst Pharmaceuticals, Inc., priority 2014, dated 2021).

Test system: hereditary angioedema (HAE)

| Molecule | effectiveness in treating HAE (in vivo) | edema in patients with hereditary angioedema (patients with HAE) |
| --- | --- | --- |
| NC(N)=NCCC[C@@H](N)C(=O)N[C@@H](CCCN=C(N)N)C(=O)N1CCC[C@H]1C(=O)N1C[C@H](O)C[C@H]1C(=O)NCC(=O)N[C@@H](Cc1cccs1)C(=O)N[C@@H](CO)C(=O)N1Cc2ccccc2C[C@@H]1C(=O)N1[C@H](C(=O)N[C@@H](CCCN=C(N)N)C(=O)O)C[C@@H]2CCCC[C@@H]21 [Icatibant] | effective in treating HAE | – |
| ecallantide [DX-88] | – | alleviates edema |
